Where a name gives a salt, the structure may show the parent alone.
Tested on: MTT (mouse pheochromocytoma)
Assay: IC50 of cell viability (ATP content)
Conditions: (24 or 48 h)
Outline: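 After overnight culture at 37°C, 5% CO2 in white 1536-well plates, MTT mouse pheochromocytoma cells were given 23 nl of library compound in DMSO by pintool across 8 concentrations, spanning final 0.5 nM to 46 µM. Following 24 or 48 hrs, CellTiter-Glo luminescence was read after 15 minutes and normalised against positive-control (100%) and DMSO (0%) wells. A four-parameter logistic model provided the IC50.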

| SMILES | IC50 of cell viability [µM] |
| --- | --- |
| CCOC(=O)C(C)(C)Oc1ccc(Cl)cc1 [Clofibrate] | > 46 |
| COc1cccc(C(=O)CCN[C@@H](C)[C@H](O)c2ccccc2)c1 [Oxyphedrine] | > 46 |
| CCCCCCCCCCCCCCCCCC(=O)OCC(O)CO (stereo not given) [GLYCERYL MONOSTEARATE] | > 46 |
| CCN[C@@H](C)Cc1ccccc1 [(+)-N-Ethylamphetamine] | > 46 |
| O=C(CS)Nc1ccccc1 [Thioglycolic acid anilide] | > 46 |
| CC(C)C(=O)Nc1ccc([N+](=O)[O-])c(C(F)(F)F)c1 [Flutamide] | > 46 |
| CC(C)CCOC(=O)c1ccc(N(C)C)cc1 [Padimato] | > 46 |
| COc1cc(CC(C)N)cc2c1OCO2 (stereo not given) [(?)-3-Methoxy-4,5-methylenedioxyamphetamine] | > 46 |
| CCCCCCCCC(=O)NCc1ccc(O)c(OC)c1 [Nonanamide, N-[(4-hydroxy-3-methoxyphenyl)methyl]-] | > 46 |
| CC(=O)O[C@@]1(CC[C@@H]2[C@@H]3\C=C(C)/C4=C/C(=O)CC[C@@]4(C)[C@H]3CC[C@@]12C)C(C)=O [Megestrol acetate] | > 46 |
| O=C(O)C(O)C(O)C(O)C(O)C(=O)O (stereo not given) [MUCIC ACID] | > 46 |
| CC(=O)Nc1ncc([N+](=O)[O-])s1 [Nithiamide] | > 46 |
| N=C(N)NC(=O)c1nc(Cl)c(N)nc1N [AMILORIDE] | > 46 |
| C[C@H]1[C@@H]2Cc3ccc(O)cc3[C@]1(C)CCN2C [(+)-Metazocine] | > 46 |
| O=C1CC[C@H](C(=O)N2CCCCC2)N1 [FASORACETAM HYDRATE] | > 46 |
| CCCCOc1cc(C(=O)OCCN(CC)CC)ccc1N [Benoxinate hydrochloride] | > 46 |
| CC(CN1c2ccccc2Sc2ccccc21)N(C)C (stereo not given) [PROMETHAZINE] | > 46 |
| c1ccc(C2(c3ccccc3)CC2C2=NCCN2)cc1 (stereo not given) [Cibenzoline succinate] | > 46 |
| CCCC1=NC(=C([N]1CC2=CC=C(C=C2)C3=CC=CC=C3C4=N[NH]N=N4)C(=O)OCC/5=C(C)/OC(=O)O5)C(C)(C)O [OLMESARTAN MEDOXOMIL] | > 46 |
| Cc1cccc(Nc2cc(Cl)nc(SCC(=O)O)n2)c1C | > 46 |
| CCOC(=O)Cc1ccc(-c2ccccc2)cc1 [FELBINAC ETHYL] | > 46 |
| CCCCCCCCCc1ccc(O)cc1 [4-Nonylphenol, branched] | > 46 |
| [2H]c1c([2H])c([2H])c2c([nH]c(=S)n2C2CCN(CCCC(=O)c3ccc(F)cc3)CC2)c1[2H] [Timiperone] | > 46 |
| O=C(c1ccc(F)cc1)C1CCN(CCn2c(=O)[nH]c3ccccc3c2=O)CC1 [KETANSERIN] | > 46 |

| SMILES | IC50 of cell viability [µM] |
| --- | --- |
| Cc1c(-c2ccc(O)cc2)n(Cc2ccc(OCCN3CCCCCC3)cc2)c2ccc(O)cc12 [Bazedoxifene] | > 46 |
| CC\1=C(/CCN2CCC(CC2)C3=NOC4=C3C=CC(=C4)F)C(=O)[N@@]\5CCC[C@H](O)C5=N1 (racemic) [rac 9-Hydroxy Risperidone] | > 46 |
| COc1ccc(C2C(=O)c3ccccc3C2=O)cc1 [ANISINDIONE] | > 46 |
| CC(C(=O)O)c1ccc(CC2CCCC2=O)cc1 (stereo not given) [loxoprofen] | > 46 |
| O=C1Nc2ccc(Cl)cc2C(C#CC2CC2)(C(F)(F)F)O1 (stereo not given) [EFAVIRENZ] | > 46 |
| N[C@@H](Cc1cc(I)c(O)c(I)c1)C(=O)O [3,5-DIIODO-L-TYROSINE] | > 46 |
| CN1C(=O)CN2CCc3ccccc3C2c2cc(Cl)ccc21 (stereo not given) [Clazolam] | > 46 |
| CCC(C)(C)c1ccc(CC(C)CN2C[C@@H](C)O[C@@H](C)C2)cc1 (stereo not given in full) [AMOROLFINE HYDROCHLORIDE] | > 46 |
| CC1C(=O)C(=O)C=CN1C (stereo not given) [DEFERIPRONE] | > 46 |
| NCCCC[C@H](N[C@@H](CCc1ccccc1)C(=O)O)C(=O)N1CCC[C@@H]1C(=O)O.O.O [Lisinopril] | > 46 |
| Nc1ccc(/N=N/c2ccccc2)c(N)n1 [Fenazopiridina] | > 46 |
| Cc1cccc(C)c1NC(=O)NC1=CCCN1C [Xilobam] | > 46 |
| C[C@@H]1C[C@@H]2[C@H]3C[C@@H](F)\C4=C\C(=O)\C=C/[C@]4(C)[C@@]3(Cl)[C@@H](O)C[C@@]2(C)[C@@H]1C(=O)COC(=O)C(C)(C)C [Clocortolone pivalate] | > 46 |
| CCOC(=O)Nc1ccc2c(c1)N(C(=O)CN(C)C)c1ccccc1CC2 [Tiracizine] | > 46 |
| C=CCOc1cc(Cl)ccc1C(=O)NCCN(CC)CC [ALLOCLAMIDE HYDROCHLORIDE] | > 46 |
| OCC1OC(O)C(O)C(O)C1O (stereo not given) [Galactose] | > 46 |
| NCCNCCNCCNCCN [Tetraethylenepentamine] | > 46 |
| O=C1[C@@H]2C[C@@H]3C[C@H]1C[C@@](O)(C3)C2 [5-Hydroxy-2-adamantanone] | > 46 |
| NC(N)=N[S+](=O)([O-])c1ccc(N)cc1 [Sulfaguanidine] | > 46 |
| CC(O)CN(C)C (stereo not given) [Dimepranolum] | > 46 |
| CCN(CC)CCOc1ccc(/C(=C(/Cl)c2ccccc2)c2ccccc2)cc1 [Enclomifene] | > 46 |
| N[C@@H]1CONC1=O [D-cycloserine] | > 46 |
| CC(C)O [2-Propanol] | > 46 |
| CC(CCc1ccc(O)cc1)NCC(O)c1ccc(O)cc1 (stereo not given) [RACTOPAMINE HYDROCHLORIDE] | > 46 |

| SMILES | IC50 of cell viability [µM] |
| --- | --- |
| NCCCNCCSP(=O)(O)O [Amifostine] | > 46 |
| CCC(=O)O[C@@H](OP(=O)(CCCCc1ccccc1)CC(=O)N1C[C@H](C2CCCCC2)C[C@H]1C(=O)[O-])C(C)C (stereo not given in full) [FOSINOPRIL SODIUM] | > 46 |
| CCCCCCCCCC(=O)O [Decanoic acid] | > 46 |
| O.Cl.COC1=C2N(\C=C(C(O)=O)/C(=O)C2=CC(=C1N3C[C@@H]4CCCN[C@@H]4C3)F)C5CC5 [Moxifloxacin Hydrochloride Monohydrate] | > 46 |
| O=c1[nH]c(=O)n(C2C[C@H](O)[C@@H](CO)O2)cc1C(F)(F)F (stereo not given in full) [Trifluridine] | > 46 |
| CN1C(=O)[C@@H](NC(=O)c2cc3ccccc3[nH]2)N=C(c2ccccc2)c2ccccc21 [DEVAZEPIDUM] | > 46 |
| CC(N/C(=N\C#N)Nc1ccncc1)C(C)(C)C (stereo not given) [PINACIDIL] | > 46 |
| ClC1=CC=C(C=C1)C(C#N)C2=C(Cl)C=C(C=C2Cl)N3\N=C/C(=O)NC3=O (stereo not given) [DICLAZURIL] | > 46 |
| ClC1=CC=C2[N]3C=NN=C3C\N=C(\C4=CC=CC=C4)C2=C1 [ESTAZOLAM] | > 46 |
| CN(C)CCC=C1c2ccccc2CCc2ccccc21 [Amitriptyline] | > 46 |
| CC12CC3CC(C)(C1)CC(N)(C3)C2 [MEMANTINE] | > 46 |
| C[C@]\12CCC(=O)\C=C1CC[C@H]3[C@@H]4CC[C@](O)(C(=O)COC(=O)CCC(O)=O)[C@@]4(C)C[C@H](O)[C@H]23 [Hydrocortisone 21-hemisuccinate sodium salt] | > 46 |
| NC(=O)Cc1cccc(C(=O)c2ccccc2)c1N [Nepafenac] | > 46 |
| CN1CCc2c(c3ccccc3n2Cc2ccccc2)C1.CN1CCc2c(c3ccccc3n2Cc2ccccc2)C1.O=[S+]([O-])(O)c1cccc2c([S+](=O)([O-])O)cccc12 [Mebhydroline 1,5-naphtalenedisulfonate] | > 46 |
| COc1cc(C(=O)N2CCOCC2)cc(OC)c1OC [Trimetozine] | > 46 |
| O=C(O)c1cc(-c2ccc(F)cc2F)ccc1O [Diflunisal] | > 46 |
| Oc1nc(O)c2nc(O)[nH]c2n1.[NaH] [URIC ACID] | > 46 |
| CCN1CCN(CC1)C2=CC3=C(C=C2F)C(=O)C(=C/N3C4CC4)\C(O)=O [ENROFLOXACIN] | > 46 |
| Clc1ccc(CC[C@H](Cn2ccnc2)Sc2c(Cl)cccc2Cl)cc1 [Butoconazole nitrate] | > 46 |
| Nc1cc(N2CCCCC2)nc(N)[n+]1[O-] [MINOXIDIL] | > 46 |
| CCCc1c(OCCCCc2nnn[nH]2)ccc(C(C)=O)c1O | > 46 |
| C=C[C@H]1CN2CCC1C[C@H]2[C@H](O)c1ccnc2ccc(OC)cc12.C=C[C@H]1CN2CCC1C[C@H]2[C@H](O)c1ccnc2ccc(OC)cc12.O.O.O=[S+]([O-])(O)O (stereo not given in full) [Quinine hemisulfate salt monohydrate] | > 46 |

From the supplement of paper PMC3974653
